What was measured:
M. tuberculosis = assay: Extracellular activity against M. tuberculosis in cholesterol media (Alamar Blue reduction assay); format: cell-based, Mycobacterium tuberculosis
Rv1625c = format: cell-based, Mycobacterium tuberculosis

SMILES	Inhibition of ΔRv1625c strain in cholesterol media (M. tuberculosis)	Fold greater susceptibility of rv1625c overexpression strain (2×rv1625c) than WT (M. tuberculosis; 2×rv1625c vs WT, 7H12+cholesterol) [fold]	cAMP induction in ΔRv1625c mutant (Rv1625c)
Cn1ncnc1CC(=O)N1CCC(c2nc(-c3ccc(Cl)c(Cl)c3)no2)CC1 [mCLB073, 1-(4-(3-(3,4-dichlorophenyl)-1,2,4-oxadiazol-5-yl)-1-piperidinyl)-2-(2-methyl-2H-1,2,4-triazol-3-yl)-1-ethanone]	refractory		
Cc1nonc1CC(=O)N1CCC(n2nnc(-c3ccc(F)cc3)n2)CC1 [Compound V-59, 1-(4-(5-(4-fluorophenyl)-2H-tetrazol-2-yl)piperidin-1-yl)-2-(4-methyl-1,2,5-oxadiazol-3-yl)ethan-1-one]	refractory	~15	did not affect
